Experimental data from the NIST ThermoML archive (doi:10.1016/j.fluid.2006.01.022).
Numbers after ± are expanded uncertainties.

Conditions: 101.33 kPa, Liquid, Alternating current cell with electrodes

Row | Structure (SMILES) | electrical conductivity (258.1 K) | electrical conductivity (263.1 K) | electrical conductivity (268.1 K) | electrical conductivity (273.1 K) | electrical conductivity (278.1 K) | electrical conductivity (283.1 K) | electrical conductivity (288.1 K) | electrical conductivity (293.1 K) | electrical conductivity (298.1 K) | electrical conductivity (303.1 K) | electrical conductivity (308.1 K) | electrical conductivity (313.1 K) | electrical conductivity (318.1 K) | electrical conductivity (323.1 K) | electrical conductivity (328.1 K) | electrical conductivity (333.1 K) | electrical conductivity (338.1 K) | electrical conductivity (343.1 K) | electrical conductivity (348.1 K) | electrical conductivity (353.1 K) | also measured
1 | CCOS(=O)(=O)[O-].CCn1cc[n+](C)c1 [1-ethyl-3-methylimidazolium ethyl sulfate] | 0.0286 ± 0.0057 S/m | 0.0374 ± 0.0075 S/m | 0.0495 ± 0.0099 S/m | 0.0727 ± 0.015 S/m | 0.105 ± 0.021 S/m | 0.139 ± 0.028 S/m | 0.202 ± 0.04 S/m | 0.291 ± 0.058 S/m | 0.382 ± 0.076 S/m | 0.485 ± 0.097 S/m | 0.606 ± 0.12 S/m | 0.724 ± 0.14 S/m | 0.861 ± 0.17 S/m | 1.01 ± 0.2 S/m | 1.18 ± 0.24 S/m | 1.35 ± 0.27 S/m | 1.54 ± 0.31 S/m | 1.75 ± 0.35 S/m | 1.95 ± 0.39 S/m | 2.18 ± 0.44 S/m | electrical conductivity (358.1 K): 2.41 ± 0.48 S/m; electrical conductivity (363.1 K): 2.68 ± 0.54 S/m; electrical conductivity (368.1 K): 3 ± 0.6 S/m; electrical conductivity (373.1 K): 3.29 ± 0.66 S/m; electrical conductivity (378.1 K): 3.57 ± 0.71 S/m; electrical conductivity (383.1 K): 3.86 ± 0.77 S/m; electrical conductivity (388.1 K): 4.15 ± 0.83 S/m; electrical conductivity (393.1 K): 4.47 ± 0.89 S/m; electrical conductivity (398.1 K): 4.77 ± 0.95 S/m; electrical conductivity (403.1 K): 5.09 ± 1 S/m; electrical conductivity (408.1 K): 5.39 ± 1.1 S/m; electrical conductivity (413.1 K): 5.68 ± 1.1 S/m; electrical conductivity (418.1 K): 6 ± 1.2 S/m; electrical conductivity (423.1 K): 6.29 ± 1.3 S/m; electrical conductivity (428.1 K): 6.58 ± 1.3 S/m; electrical conductivity (433.1 K): 6.86 ± 1.4 S/m
2 | CCn1cc[n+](C)c1.F[B-](F)(F)F [1-ethyl-3-methylimidazolium tetrafluoroborate] | 0.245 ± 0.049 S/m | 0.296 ± 0.059 S/m | 0.445 ± 0.089 S/m | 0.612 ± 0.12 S/m | 0.735 ± 0.15 S/m | 0.896 ± 0.18 S/m | 1.09 ± 0.22 S/m | 1.3 ± 0.26 S/m | 1.57 ± 0.31 S/m | 1.79 ± 0.36 S/m | 2.02 ± 0.4 S/m | 2.28 ± 0.46 S/m | 2.55 ± 0.51 S/m | 2.85 ± 0.57 S/m | 3.22 ± 0.64 S/m | 3.56 ± 0.71 S/m | 3.95 ± 0.79 S/m | 4.35 ± 0.87 S/m | 4.77 ± 0.95 S/m | 5.22 ± 1 S/m | electrical conductivity (358.1 K): 5.55 ± 1.1 S/m; electrical conductivity (363.1 K): 5.95 ± 1.2 S/m; electrical conductivity (368.1 K): 6.46 ± 1.3 S/m; electrical conductivity (373.1 K): 6.9 ± 1.4 S/m; electrical conductivity (378.1 K): 7.36 ± 1.5 S/m; electrical conductivity (383.1 K): 7.83 ± 1.6 S/m; electrical conductivity (388.1 K): 8.32 ± 1.7 S/m; electrical conductivity (393.1 K): 8.77 ± 1.8 S/m; electrical conductivity (398.1 K): 9.29 ± 1.9 S/m; electrical conductivity (403.1 K): 9.79 ± 2 S/m; electrical conductivity (408.1 K): 10.3 ± 2 S/m; electrical conductivity (413.1 K): 10.8 ± 2.2 S/m; electrical conductivity (418.1 K): 11.3 ± 2.3 S/m; electrical conductivity (423.1 K): 11.8 ± 2.4 S/m; electrical conductivity (428.1 K): 12.3 ± 2.5 S/m; electrical conductivity (433.1 K): 12.7 ± 2.5 S/m
